This note sets out measurements from patent US20230114728A1 (Venatorx Pharmaceuticals, Inc., priority 2019, published 2023).

Common to all, as to assay: Broth microdilution MIC in CAMHB
Format in all cases: cell-based
(Dilution methods test growth across graded concentrations, often in twofold steps.)

One experiment has as its system E. coli AG100. The conditions noted are these: Escherichia coli; E. coli AG100 (wild-type parent); MHB; read-out: Minimum Inhibitory Concentration, E. coli AG100. An outline of the steps: (§1)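 Lowest compound concentration with no visible growth after 16-20 h at 37 °C defines MIC. Plates of 2-fold serial dilutions in cation-adjusted Mueller Hinton broth received 2-8×10^5 CFU/mL of exponentially grown cells, per CLSI methods; panel spans reference, hyper-permeable and efflux-pump-deleted strains.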

The test system of another experiment is E. coli ATCC 25922. The conditions noted are these: Escherichia coli, ATCC25922; E. coli ATCC 25922; MHB; read-out: Minimum Inhibitory Concentration, E. coli 25922. An outline of the steps: as §1
Another experiment concerns P. aeruginosa ATCC 27853. To be noted: Pseudomonas aeruginosa, ATCC27853; MHB; read-out: Minimum Inhibitory Concentration, P. aeruginosa ATCC 27853. An outline of the steps:
as §1

A further experiment deals with E. coli 901C. To be noted: Escherichia coli; E. coli 901C (hyper-permeable); MHB; read-out: Minimum Inhibitory Concentration, E. coli 901C. An outline of the steps: as §1
Experiment [1] has as its system K. pneumoniae UMM producing SHV-5 and KPC-2. To be noted: Klebsiella pneumoniae, read-out: Minimum Inhibitory Concentration, K. pneumoniae UMM. An outline of the steps: as §1
The next experiment deals with P. aeruginosa ATCC 35151. To be noted: Pseudomonas aeruginosa, ATCC35151; MHB; hyper-permeable strain; read-out: Minimum Inhibitory Concentration, P. aeruginosa ATCC 35151. A digest of the protocol:
as §1

Experiment [2] relates to K. pneumoniae 848844 producing SHV-11 and KPC-2. To be noted: Klebsiella pneumoniae, read-out: Minimum Inhibitory Concentration, K. pneumoniae 848844. An outline of the steps:
as §1

The subject of experiment [3] is P. aeruginosa (ΔmexAB-oprM). To be noted: Pseudomonas aeruginosa, read-out: Minimum Inhibitory Concentration, P. aeruginosa ΔmexAB-OprM. A digest of the protocol:
as §1

In a further experiment the test system is E. coli AG100A. To be noted: Escherichia coli, read-out: Minimum Inhibitory Concentration, E. coli AG100A. A digest of the protocol: as §1
A further experiment concerns A. baumannii ATCC 19606. The conditions noted are these: Acinetobacter baumannii, ATCC19606; MHB; read-out: Minimum Inhibitory Concentration, A. baumannii ATCC 19606. An outline of the steps: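 CLSI microdilution; CAMHB; inoculum 2-8×10^5 CFU/mL from 3-5 h 37° C culture; 2-fold compound series; 16-20 h, 37° C; MIC = lowest well without visible growth.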
The next experiment relates to E. coli D22. To be noted: Escherichia coli; E. coli D22 (hyper-permeable); MHB; read-out: Minimum Inhibitory Concentration, E. coli D22. An outline of the steps:
as §1

The test system of experiment [4] is K. pneumoniae SI-117 producing VIM-1. The conditions noted are these: Klebsiella pneumoniae, read-out: Minimum Inhibitory Concentration, K. pneumoniae SI-117. A digest of the protocol: as §1

Values after ≈ are worked out from the molar mass of the structure shown.

In the case of `CCN1CCN(C(=O)NC(C(=O)N[C@H]2Cc3cccc(C(=O)O)c3OB2O)c2c(F)cc(NS(N)(=O)=O)cc2F)C(=O)C1=O` (stereo partly drawn) [Example 176, (3R)-3-(2-(2,6-difluoro-4-(sulfamoylamino)phenyl)-2-(4-ethyl-2,3-dioxopiperazine-1-carboxamido)acetamido)-2-hydroxy-3,4-dihydro-2H-benzo[e][1,2]oxaborinine-8-carboxylic acid], the MIC in the experiment on E. coli AG100 is 32 to 64 µg/mL (≈ 50.1 to 100 µM); in the experiment with E. coli ATCC 25922, 32 to 64 µg/mL (≈ 50.1 to 100 µM); with P. aeruginosa ATCC 27853 it was over 128 µg/mL; in the experiment with E. coli 901C, under 0.25 µg/mL; in experiment [1] it was 32 to 64 µg/mL (≈ 50.1 to 100 µM); with P. aeruginosa ATCC 35151 it was 2 to 4 µg/mL (≈ 3.13 to 6.27 µM). Besides, the MIC in [2] is over 128 µg/mL; in experiment [3], 32 to 64 µg/mL (≈ 50.1 to 100 µM); with E. coli AG100A, 2 to 4 µg/mL (≈ 3.13 to 6.27 µM); in the experiment with A. baumannii ATCC 19606, over 128 µg/mL; in the experiment with E. coli D22, 2 to 4 µg/mL (≈ 3.13 to 6.27 µM); in experiment [4], over 128 µg/mL.

Regarding `NCCN1CCN(C(=O)NC(C(=O)N[C@H]2Cc3cccc(C(=O)O)c3OB2O)c2c(F)cc(NS(N)(=O)=O)cc2F)C(=O)C1=O` (stereo partly drawn) [Example 177, (3R)-3-(2-(4-(2-aminoethyl)-2,3-dioxopiperazine-1-carboxamido)-2-(2,6-difluoro-4-(sulfamoylamino)phenyl)acetamido)-2-hydroxy-3,4-dihydro-2H-benzo[e][1,2]oxaborinine-8-carboxylic acid], the MIC in the experiment on E. coli AG100 was over 128 µg/mL; with E. coli ATCC 25922, over 128 µg/mL; in the experiment with P. aeruginosa ATCC 27853 it was over 128 µg/mL; with E. coli 901C it was 2 to 4 µg/mL (≈ 3.06 to 6.12 µM); in experiment [1], over 128 µg/mL; in the experiment with P. aeruginosa ATCC 35151 it was 2 to 4 µg/mL (≈ 3.06 to 6.12 µM). Also, the MIC was over 128 µg/mL in experiment [2]; 32 to 64 µg/mL (≈ 49 to 98 µM) in experiment [3]; 8 to 16 µg/mL (≈ 12.2 to 24.5 µM) with E. coli AG100A; over 128 µg/mL in the experiment on A. baumannii ATCC 19606; 32 to 64 µg/mL (≈ 49 to 98 µM) in the experiment with E. coli D22; over 128 µg/mL in [4].

Take `NCCCN1CCN(C(=O)NC(C(=O)N[C@H]2Cc3ccc(F)c(C(=O)O)c3OB2O)c2c(F)cc(O)cc2F)C(=O)C1=O` (stereo partly drawn) [Example 178, (3R)-3-(2-(4-(3-aminopropyl)-2,3-dioxopiperazine-1-carboxamido)-2-(2,6-difluoro-4-hydroxyphenyl)acetamido)-7-fluoro-2-hydroxy-3,4-dihydro-2H-benzo[e][1,2]oxaborinine-8-carboxylic acid]: the MIC was 8 to 16 µg/mL (≈ 13.2 to 26.3 µM) with E. coli AG100; 32 to 64 µg/mL (≈ 52.7 to 105 µM) in the experiment on E. coli ATCC 25922; over 128 µg/mL in the experiment on P. aeruginosa ATCC 27853; 2 to 4 µg/mL (≈ 3.29 to 6.59 µM) with E. coli 901C; 8 to 16 µg/mL (≈ 13.2 to 26.3 µM) in experiment [1]; 0.5 to 1 µg/mL (≈ 0.823 to 1.65 µM) with P. aeruginosa ATCC 35151. The MIC is 32 to 64 µg/mL (≈ 52.7 to 105 µM) in [2]; 8 to 16 µg/mL (≈ 13.2 to 26.3 µM) in experiment [3]; 8 to 16 µg/mL (≈ 13.2 to 26.3 µM) in the experiment with E. coli AG100A; over 128 µg/mL in the experiment on A. baumannii ATCC 19606; 2 to 4 µg/mL (≈ 3.29 to 6.59 µM) with E. coli D22; 32 to 64 µg/mL (≈ 52.7 to 105 µM) in experiment [4].

Take `CCN1CCN(C(=O)NC(C(=O)N[C@H]2Cc3cccc(C(=O)O)c3OB2O)c2c(F)cc(N)cc2F)C(=O)C1=O` (stereo partly drawn) [Example 181, (3R)-3-(2-(4-amino-2,6-difluorophenyl)-2-(4-ethyl-2,3-dioxopiperazine-1-carboxamido)acetamido)-2-hydroxy-3,4-dihydro-2H-benzo[e][1,2]oxaborinine-8-carboxylic acid]: the MIC in the experiment on E. coli AG100 was 32 to 64 µg/mL (≈ 57.2 to 114 µM); in the experiment with E. coli ATCC 25922, 32 to 64 µg/mL (≈ 57.2 to 114 µM); with P. aeruginosa ATCC 27853 it was over 128 µg/mL; with E. coli 901C, under 0.25 µg/mL; in experiment [1] it was 32 to 64 µg/mL (≈ 57.2 to 114 µM); in the experiment on P. aeruginosa ATCC 35151 it was 0.5 to 1 µg/mL (≈ 0.894 to 1.79 µM). Also, the MIC in experiment [2] was over 128 µg/mL; in experiment [3], 8 to 16 µg/mL (≈ 14.3 to 28.6 µM); in the experiment on E. coli AG100A it was 2 to 4 µg/mL (≈ 3.58 to 7.15 µM); with A. baumannii ATCC 19606, over 128 µg/mL; with E. coli D22 it was 2 to 4 µg/mL (≈ 3.58 to 7.15 µM); in [4], 32 to 64 µg/mL (≈ 57.2 to 114 µM).
